Reference: ChEMBL document CHEMBL3885861, “Open TG-GATES”

Species: Rattus norvegicus
Assay: Open TG-GATES - Regimen: Daily Repeat
Assay type: toxicity, organism-based, Sprague-Dawley
Set-up: regimen Daily Repeat, gender Male, age 6 weeks
Settings: in vivo, po, route gavage; for APTT / Bas / Eos / Fbg / Hb / Ht / Lym / MCH / MCHC / MCV / Mono / Neu / PT / Plat / RBC / Ret / WBC: tissue Blood; for KIDNEY_L / KIDNEY_R / KIDNEY_TOTAL: tissue Kidney; for LIVER: tissue Liver; for ALP / ALT / AST / BUN / CRE / DBIL / GLC / K / Na / PL / RALB / TBIL / TC / TG / TP / gamma-GTP: tissue Plasma
[1] = 0 mg/kg, 72 h, dose level Control, time 3 day
[2] = 0 mg/kg, […], dose level Control, time 7 day
[3] = 0 mg/kg, […], dose level Control, time 14 day
[4] = 0 mg/kg, […], dose level Control, time 28 day
[5] = 25 mg/kg, 72 h, dose level Low, time 3 day
[6] = 25 mg/kg, […], dose level Low, time 7 day
[7] = 25 mg/kg, […], dose level Low, time 14 day
[8] = 25 mg/kg, […], dose level Low, time 28 day

CN1C(=O)CN=C(c2ccccc2)c2cc(Cl)ccc21 [DIAZEPAM]
TERMINAL_BW [1]: 246.7 g | APTT [1]: 16.3 s | Bas [1]: 0% | Eos [1]: 1.2% | Fbg [1]: 235.6 mg/dL | Hb [1]: 13.5 g/dL | Ht [1]: 40.6% | Lym [1]: 78.6% | MCH [1]: 21.4 pg | MCHC [1]: 33.2% | MCV [1]: 64.4 fL | Mono [1]: 6.4% | Neu [1]: 14.2% | PT [1]: 12 s | Plat [1]: 114.2 x10_4/uL | RBC [1]: 630.6 x10_4/ul | Ret [1]: 6.6% | WBC [1]: 104 x10_2/uL | KIDNEY_L [1]: 1.1 g | KIDNEY_R [1]: 1.1 g | KIDNEY_TOTAL [1]: 2.2 g | LIVER [1]: 12.5 g | ALP [1]: 817.2 IU/L | ALT [1]: 34.2 IU/L | AST [1]: 59.4 IU/L | BUN [1]: 17.2 mg/dL | CRE [1]: 0.5 mg/dL | DBIL [1]: 0.006 mg/dL | GLC [1]: 198.8 mg/dL | K [1]: 5 meq/L | Na [1]: 138.9 meq/L | PL [1]: 154 mg/dL | RALB [1]: 4 g/dL | TBIL [1]: 0.3 mg/dL | TC [1]: 78.4 mg/dL | TG [1]: 115.4 mg/dL | TP [1]: 6 g/dL | gamma-GTP [1]: 1.6 IU/L | TERMINAL_BW [2]: 289.2 g | TERMINAL_BW [3]: 333.2 g | TERMINAL_BW [4]: 416.1 g | APTT [2]: 16 s | Bas [2]: 0% | Eos [2]: 1% | Fbg [2]: 237.8 mg/dL | Hb [2]: 14.2 g/dL | Ht [2]: 42.8% | Lym [2]: 79.2% | MCH [2]: 21.8 pg | MCHC [2]: 33.2% | MCV [2]: 65.6 fL | Mono [2]: 9.4% | Neu [2]: 11% | PT [2]: 11.4 s | Plat [2]: 106.5 x10_4/uL | RBC [2]: 653.4 x10_4/ul | Ret [2]: 6.3% | WBC [2]: 120.8 x10_2/uL | APTT [3]: 16.4 s | Bas [3]: 0% | Eos [3]: 0.6% | Fbg [3]: 234 mg/dL | Hb [3]: 15.2 g/dL | Ht [3]: 45.6% | Lym [3]: 80.6% | MCH [3]: 20.9 pg | MCHC [3]: 33.3% | MCV [3]: 62.9 fL | Mono [3]: 3.6% | Neu [3]: 14.8% | PT [3]: 12 s | Plat [3]: 92.8 x10_4/uL | RBC [3]: 725.4 x10_4/ul | Ret [3]: 4.5% | WBC [3]: 149.8 x10_2/uL | APTT [4]: 17 s | Bas [4]: 0% | Eos [4]: 1.2% | Fbg [4]: 227.2 mg/dL | Hb [4]: 15.8 g/dL | Ht [4]: 47.5% | Lym [4]: 83.6% | MCH [4]: 19 pg | MCHC [4]: 33.3% | MCV [4]: 57 fL | Mono [4]: 6.4% | Neu [4]: 9% | PT [4]: 12.3 s | Plat [4]: 102.6 x10_4/uL | RBC [4]: 833 x10_4/ul | Ret [4]: 2.2% | WBC [4]: 146.4 x10_2/uL | KIDNEY_L [2]: 1.2 g | KIDNEY_R [2]: 1.3 g | KIDNEY_TOTAL [2]: 2.5 g | KIDNEY_L [3]: 1.3 g | KIDNEY_R [3]: 1.3 g | KIDNEY_TOTAL [3]: 2.7 g | KIDNEY_L [4]: 1.4 g | KIDNEY_R [4]: 1.5 g | KIDNEY_TOTAL [4]: 2.9 g | LIVER [2]: 14.8 g | LIVER [3]: 14.8 g | LIVER [4]: 17.1 g | ALP [2]: 843.2 IU/L | ALT [2]: 37.2 IU/L | AST [2]: 60.4 IU/L | BUN [2]: 17.8 mg/dL | CRE [2]: 0.5 mg/dL | DBIL [2]: 0.02 mg/dL | GLC [2]: 188.8 mg/dL | K [2]: 5.1 meq/L | Na [2]: 137.6 meq/L | PL [2]: 184.8 mg/dL | RALB [2]: 4.2 g/dL | TBIL [2]: 0.3 mg/dL | TC [2]: 92.8 mg/dL | TG [2]: 164.6 mg/dL | TP [2]: 6.4 g/dL | gamma-GTP [2]: 1.6 IU/L | ALP [3]: 714 IU/L | ALT [3]: 37.4 IU/L | AST [3]: 68.2 IU/L | BUN [3]: 19.4 mg/dL | CRE [3]: 0.6 mg/dL | DBIL [3]: 0.01 mg/dL | GLC [3]: 183.2 mg/dL | K [3]: 4.6 meq/L | Na [3]: 141.1 meq/L | PL [3]: 149.2 mg/dL | RALB [3]: 4 g/dL | TBIL [3]: 0.3 mg/dL | TC [3]: 72 mg/dL | TG [3]: 131.8 mg/dL | TP [3]: 6.4 g/dL | gamma-GTP [3]: 1 IU/L | ALP [4]: 591.2 IU/L | ALT [4]: 28.4 IU/L | AST [4]: 54.2 IU/L | BUN [4]: 19.8 mg/dL | CRE [4]: 0.7 mg/dL | DBIL [4]: 0.002 mg/dL | GLC [4]: 182.8 mg/dL | K [4]: 4.5 meq/L | Na [4]: 139.4 meq/L | PL [4]: 147.8 mg/dL | RALB [4]: 4.1 g/dL | TBIL [4]: 0.2 mg/dL | TC [4]: 67.2 mg/dL | TG [4]: 165.6 mg/dL | TP [4]: 6.6 g/dL | gamma-GTP [4]: 1.2 IU/L | TERMINAL_BW [5]: 248 g | APTT [5]: 16.5 s | Bas [5]: 0% | Eos [5]: 1% | Fbg [5]: 230 mg/dL | Hb [5]: 13.9 g/dL | Ht [5]: 42% | Lym [5]: 84% | MCH [5]: 21.5 pg | MCHC [5]: 33.2% | MCV [5]: 64.8 fL | Mono [5]: 3.8% | Neu [5]: 11.2% | PT [5]: 12 s | Plat [5]: 100.7 x10_4/uL | RBC [5]: 647.8 x10_4/ul | Ret [5]: 6.3% | WBC [5]: 155.1 x10_2/uL | KIDNEY_L [5]: 1.1 g | KIDNEY_R [5]: 1.1 g | KIDNEY_TOTAL [5]: 2.1 g | LIVER [5]: 12 g | ALP [5]: 908.6 IU/L | ALT [5]: 37.4 IU/L | AST [5]: 63.4 IU/L | BUN [5]: 16.8 mg/dL | CRE [5]: 0.6 mg/dL | DBIL [5]: 0.016 mg/dL | GLC [5]: 193.2 mg/dL | K [5]: 4.7 meq/L | Na [5]: 139.3 meq/L | PL [5]: 150.4 mg/dL | RALB [5]: 4.1 g/dL | TBIL [5]: 0.3 mg/dL | TC [5]: 81.4 mg/dL | TG [5]: 76.4 mg/dL | TP [5]: 6 g/dL | gamma-GTP [5]: 1 IU/L | TERMINAL_BW [6]: 279.2 g | TERMINAL_BW [7]: 331.4 g | TERMINAL_BW [8]: 411.1 g | APTT [6]: 16.6 s | Bas [6]: 0% | Eos [6]: 0.8% | Fbg [6]: 223 mg/dL | Hb [6]: 14.2 g/dL | Ht [6]: 42.5% | Lym [6]: 79.6% | MCH [6]: 20.8 pg | MCHC [6]: 33.4% | MCV [6]: 62.3 fL | Mono [6]: 3.8% | Neu [6]: 16.2% | PT [6]: 11.4 s | Plat [6]: 116.1 x10_4/uL | RBC [6]: 681.6 x10_4/ul | Ret [6]: 5.7% | WBC [6]: 115.6 x10_2/uL | APTT [7]: 16.6 s | Bas [7]: 0% | Eos [7]: 0.8% | Fbg [7]: 225.8 mg/dL | Hb [7]: 14.8 g/dL | Ht [7]: 44.6% | Lym [7]: 83.2% | MCH [7]: 20.1 pg | MCHC [7]: 33.3% | MCV [7]: 60.3 fL | Mono [7]: 5.6% | Neu [7]: 10.6% | PT [7]: 12 s | Plat [7]: 110.6 x10_4/uL | RBC [7]: 740 x10_4/ul | Ret [7]: 4.1% | WBC [7]: 120.7 x10_2/uL | APTT [8]: 18 s | Bas [8]: 0% | Eos [8]: 0.6% | Fbg [8]: 223.8 mg/dL | Hb [8]: 15.8 g/dL | Ht [8]: 47.2% | Lym [8]: 83.4% | MCH [8]: 19.3 pg | MCHC [8]: 33.4% | MCV [8]: 57.7 fL | Mono [8]: 3.6% | Neu [8]: 12% | PT [8]: 12.1 s | Plat [8]: 102.8 x10_4/uL | RBC [8]: 818.6 x10_4/ul | Ret [8]: 2.7% | WBC [8]: 154.6 x10_2/uL | KIDNEY_L [6]: 1.2 g | KIDNEY_R [6]: 1.2 g | KIDNEY_TOTAL [6]: 2.4 g | KIDNEY_L [7]: 1.3 g | KIDNEY_R [7]: 1.3 g | KIDNEY_TOTAL [7]: 2.6 g | KIDNEY_L [8]: 1.4 g | KIDNEY_R [8]: 1.4 g | KIDNEY_TOTAL [8]: 2.8 g | LIVER [6]: 14.1 g | LIVER [7]: 14.8 g | LIVER [8]: 16.9 g | ALP [6]: 886.2 IU/L | ALT [6]: 33.6 IU/L | AST [6]: 62 IU/L | BUN [6]: 18.8 mg/dL | CRE [6]: 0.5 mg/dL | DBIL [6]: 0.024 mg/dL | GLC [6]: 188.2 mg/dL | K [6]: 4.9 meq/L | Na [6]: 137.7 meq/L | PL [6]: 170.4 mg/dL | RALB [6]: 4.1 g/dL | TBIL [6]: 0.3 mg/dL | TC [6]: 77.8 mg/dL | TG [6]: 168.6 mg/dL | TP [6]: 6.1 g/dL | gamma-GTP [6]: 1.2 IU/L | ALP [7]: 848.8 IU/L | ALT [7]: 34.4 IU/L | AST [7]: 64.4 IU/L | BUN [7]: 18.4 mg/dL | CRE [7]: 0.6 mg/dL | DBIL [7]: 0.002 mg/dL | GLC [7]: 190.2 mg/dL | K [7]: 4.4 meq/L | Na [7]: 140.3 meq/L | PL [7]: 148.2 mg/dL | RALB [7]: 4 g/dL | TBIL [7]: 0.3 mg/dL | TC [7]: 66.4 mg/dL | TG [7]: 154.8 mg/dL | TP [7]: 6.1 g/dL | gamma-GTP [7]: 0.8 IU/L | ALP [8]: 483.4 IU/L | ALT [8]: 30.6 IU/L | AST [8]: 60.4 IU/L | BUN [8]: 19.8 mg/dL | CRE [8]: 0.6 mg/dL | DBIL [8]: 0.016 mg/dL | GLC [8]: 201.4 mg/dL | K [8]: 4.3 meq/L | Na [8]: 140.7 meq/L | PL [8]: 135.6 mg/dL | RALB [8]: 4 g/dL | TBIL [8]: 0.3 mg/dL | TC [8]: 63.6 mg/dL | TG [8]: 134.2 mg/dL | TP [8]: 6.5 g/dL | gamma-GTP [8]: 1 IU/L
